# Source: US12668590B2, “Composition and method for treating metabolic disorders” (priority 2016, dated 2026)
# How the values were obtained:
# [1] = Aqueous solubility/dissolution of bromocriptine citrate relative to bromocriptine mesylate; assay type: physicochemical; details: various pH conditions, compared to bromocriptine mesylate
# Method: Solid samples of equal amounts of bromocriptine mesylate and bromocriptine citrate added, under various pH conditions, to equal volumes of water or water/organic solutions in different vessels and the dissolution of the bromocriptine samples (aqueous solubility) was assessed over time.
# [2] = Stability (degradation) of pharmaceutical preparations at 40° C. and 70% relative humidity; assay type: physicochemical; details: three-month period, compared to bromocriptine mesylate
# Method: Pharmaceutical preparations of bromocriptine mesylate and bromocriptine citrate are exposed to atmospheric conditions (40° C. and 70% relative humidity) and the degradation of the bromocriptine is assessed over time.
substance,measurement,setting,value
2-bromo-alpha-ergocryptine citrate [bromocriptine citrate],rate of dissolution,[1]; solid samples in water or water/organic solutions,dissolve much more quickly
same,aqueous solubility (mg of bromocriptine dissolved per ml of water),[1]; water or water/organic solutions,significantly greater solubility
same,degradation of the bromocriptine,[2],substantially less
